Patent EP1672365A1, “Means and methods for determining and/or influencing cellular transportation” (priority 2004, dated 2006)
“Also recorded” adds a separate entry of the source.

Tests used:
Bcrp1 [1] = molecular target: T1, Bcrp1 (Mus musculus, UniProt Q7TMS5); experiment: Milk secretion of radiolabelled compounds after intravenous administration to lactating wild-type and Bcrp1-/- mice; format: in vivo; design: Bcrp1 was detected primarily in the apical membrane of alveolar epithelial cells; from tissue; host or cells: mammary gland of lactating wild-type mice (Bcrp1-/- mice as control); conditions: for milk secretion in Bcrp1-/- compared to wild-type mice: lactating wild-type vs Bcrp1-/- mice; for milk-to-plasma (M/P) ratio: lactating Bcrp1-/- mice; for milk-to-plasma (M/P) ratio / milk secretion in wild-type mice: 1 mg kg-1 intravenously, 30 min; for milk secretion in wild-type mice: lactating wild-type mice
T1 sequence (Q7TMS5 1-657): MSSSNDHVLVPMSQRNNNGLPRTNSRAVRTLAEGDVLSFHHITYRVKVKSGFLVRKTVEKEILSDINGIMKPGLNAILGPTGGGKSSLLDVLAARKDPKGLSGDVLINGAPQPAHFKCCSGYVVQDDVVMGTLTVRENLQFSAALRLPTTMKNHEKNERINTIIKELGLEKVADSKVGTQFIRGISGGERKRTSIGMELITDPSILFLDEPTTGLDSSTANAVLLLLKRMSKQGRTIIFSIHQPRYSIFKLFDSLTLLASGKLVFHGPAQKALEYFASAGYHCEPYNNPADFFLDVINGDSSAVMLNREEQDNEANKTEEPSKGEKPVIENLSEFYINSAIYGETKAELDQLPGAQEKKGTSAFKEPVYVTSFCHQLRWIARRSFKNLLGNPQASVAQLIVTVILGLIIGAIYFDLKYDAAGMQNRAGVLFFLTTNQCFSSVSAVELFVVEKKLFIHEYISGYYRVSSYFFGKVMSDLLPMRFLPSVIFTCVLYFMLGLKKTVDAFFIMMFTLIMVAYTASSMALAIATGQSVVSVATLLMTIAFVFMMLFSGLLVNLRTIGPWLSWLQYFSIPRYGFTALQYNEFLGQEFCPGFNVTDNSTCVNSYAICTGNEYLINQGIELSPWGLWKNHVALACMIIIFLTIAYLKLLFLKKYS
Method: (§1) For intravenous drug administration, 5 µl drug solution per g body weight was injected into the tail vein of mice lightly anesthetised with methoxyflurane. Levels of radioactivity in plasma and milk were determined by liquid scintillation counting. Measurements of drug secretion into the milk were done in lactating dams with pups of approximately 10 days old. To stimulate milk secretion, oxytocin (200 µl of an 1 I.U. ml^-1 solution) was administered subcutaneously to lactating dams at 30 min before milk was collected. After intravenous administration of a drug, at the indicated time approximately 50 µl milk was collected from the 4th and 5th mammary glands by gentle vacuum suction. Immediately after milk collection, a small blood sample was collected from the tail.

Bcrp1 [2] = experiment: Inhibition of Bcrp1-mediated milk secretion of topotecan by GF120918; format: in vivo; conditions: GF120918 250 mg/kg orally 2 hours before [14C]-topotecan 1 mg/kg i.v., lactating mice
Method: GF120918 was suspended at […] in water for injection and concentrated stock vehicle (1:1). The concentrated stock vehicle consisted of hydroxypropyl methyl cellulose (10 g/l) and 2% Tween 80 in water for injection. Animals were administered GF120918 (250 mg/kg; 10 µl of drug solution/g body weight) by gavage into the stomach at 2 hours before [^14C]-topotecan injection. [^14C]-topotecan (1 mg/kg) was injected into the vein of mice lightly anesthetized with methoxyflurane. To stimulate milk secretion, oxytocin (200 µl of 1 I.U./ml solution) was administered subcutaneously to lactating dams at 15 min before each milk sample was collected. At indicated time points (15, 30, 60 and 120 min after [^14C]-topotecan injection), 50 µl of milk was collected from the mammary glands by gentle vacuum suction. […] At the last sampling point, animals were sacrificed by cardiac puncture after anesthesia with methoxyflurane.

human BCRP = molecular target: T2, human BCRP (Homo sapiens, UniProt Q9UNQ0); experiment: Vesicular transport assay (inside-out vesicle uptake, Sf9 membrane vesicles); format: biochemical; conditions: 3H-riboflavin 0.25 µM, vesicles from Sf9 cells with BCRP-expressing or wild-type baculovirus, 4 mM ATP
T2 construct: made in house; host or cells: Sf9 insect cells infected with BCRP-expressing baculovirus (membrane vesicles)
T2 sequence (Q9UNQ0 1-655): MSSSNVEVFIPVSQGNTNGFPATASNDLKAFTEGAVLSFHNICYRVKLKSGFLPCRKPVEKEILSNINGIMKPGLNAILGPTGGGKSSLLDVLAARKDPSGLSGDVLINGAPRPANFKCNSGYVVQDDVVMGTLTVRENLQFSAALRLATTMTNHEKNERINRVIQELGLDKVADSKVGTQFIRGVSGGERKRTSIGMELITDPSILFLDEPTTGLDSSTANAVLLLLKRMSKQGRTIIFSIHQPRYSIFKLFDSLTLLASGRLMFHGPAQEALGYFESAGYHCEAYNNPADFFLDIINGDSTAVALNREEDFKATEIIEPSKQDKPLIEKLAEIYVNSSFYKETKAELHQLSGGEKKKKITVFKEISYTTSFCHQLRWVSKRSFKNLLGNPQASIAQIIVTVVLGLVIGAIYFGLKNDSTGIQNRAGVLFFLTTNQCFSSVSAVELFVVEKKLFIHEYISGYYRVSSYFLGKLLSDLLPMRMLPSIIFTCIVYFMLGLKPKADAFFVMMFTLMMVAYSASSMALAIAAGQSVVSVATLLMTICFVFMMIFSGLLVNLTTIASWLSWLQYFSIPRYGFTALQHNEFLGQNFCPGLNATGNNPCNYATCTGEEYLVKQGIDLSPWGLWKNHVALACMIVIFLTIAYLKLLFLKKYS
Method: Vesicular transport assays were performed as described (Ozvegy, C., et al. Functional characterization of the human multidrug transporter, ABCG2, expressed in insect cells. Biochem. Biophys. Res. Commun. 285, 111-117 (2001); Zelcer, N., et al. Evidence for two interacting ligand-binding sites in human MRP2 (ABCC2). J. Biol. Chem. 278, 23538-23544 (2003)), using vesicles from Sf9 cells infected with BCRP-expressing or wild-type baculovirus, in the presence or absence of 4 mM ATP. ATP-dependent transport was calculated by subtracting the uptake in absence of ATP from that in the presence of ATP.

Bcrp1 [3] = molecular target: T1, Bcrp1; conditions: in vivo
Method: as §1
Samples were protected from light during the whole sample pre-treatment. Methanol (4 times the sample volume) was added to plasma and milk samples to precipitate proteins. […] The flow was 1.0 ml min^-1 and the detection was performed fluorimetrically using a FP920 Intelligent Fluorescence Detector (Jasco International Co. Ltd., Tokyo, Japan) with excitation/emission wavelengths set at 372/520 nm and 40 nm bandwidth. The capacity of the flow-cell of the fluorescence detector was 16 µl. […] Calibration curves were calculated by least-squares linear regression using a weighting factor of the reciprocal of the concentration.

## C[C@]12CC[C@H](OS(=O)(=O)O)CC1=CC[C@@H]1[C@@H]2CC[C@]2(C)C(=O)CC[C@@H]12 [DHEAS, dehydroepiandrosterone-sulfate]
Bcrp1 [1]
  milk secretion in Bcrp1-/- compared to wild-type mice: not affected

## COc1cc2c(cc1OC)CN(CCc1ccc(NC(=O)c3cccc4c(=O)c5cccc(OC)c5[nH]c34)cc1)CC2 [GF120918, N-{4-[2-(1,2,3,4-tetrahydro-6,7-dimethoxy-2-isoquinolinyl)-ethyl]-phenyl}-9,10-dihydro-5-methoxy-9-oxo-4-acridine carboxamide]
Bcrp1 [2]
  effect on active secretion of topotecan into the milk by Bcrp1: effectively reversed; also recorded: capable of at least in part inhibiting transport of topotecan into the milk

## Cn1c(N)nc2ncc(-c3ccccc3)cc21 [PhIP, 2-amino-1-methyl-6-phenylimidazo[4,5-b]pyridine]
Bcrp1 [1]
  milk-to-plasma (M/P) ratio: <= 1
  milk secretion in wild-type mice: highly concentrated into the milk

## Nc1nc2ncc(CNc3ccc(C(=O)N[C@@H](CCC(=O)O)C(=O)O)cc3)nc2c(=O)[nH]1 [folic acid]
Bcrp1 [1]
  milk secretion in Bcrp1-/- compared to wild-type mice: not affected

## Cc1cc2nc3c(=O)[nH]c(=O)nc-3n(C[C@H](O)[C@H](O)[C@H](O)CO)c2cc1C [riboflavin]
Human BCRP
  ATP-dependent transport by human BCRP: confirmed ATP-dependent transport
Bcrp1 [3]
  decrease in the endogenous milk secretion: 67 fold

## CC[C@@]1(O)C(=O)OCc2c1cc1n(c2=O)Cc2cc3c(CN(C)C)c(O)ccc3nc2-1 [topotecan]
Bcrp1 [1]
  milk-to-plasma (M/P) ratio: <= 1
  milk secretion in wild-type mice: highly concentrated into the milk

## vitamin B12
Bcrp1 [1]
  milk secretion in Bcrp1-/- compared to wild-type mice: not affected
